Assay results taken from US20210369853A1, “TARGETED PROTEASE DEGRADATION PLATFORM” (EUBULUS BIOTHERAPEUTICS INC., priority 2018, published 2021).

What was measured:
[1] = system: Human Colon Cancer HCT-116; assay: Cell proliferation experiment (Alarm blue, 72 h, EC50); assay type: cell-based; details: Homo sapiens, HCT-116; HCT116 cells
In short: (§1)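 Duplicate wells per concentration, 5-fold dilution series, 72 h continuous exposure of log-phase cells; read-out Alamar blue fluorescence, EC50 derived by curve fit with minimum, maximum and slope terms.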

[2] = system: Human Monocytic Leukemia MV4-11; assay: as above; assay type: cell-based
In short: as §1

[3] = Homo sapiens, MV4-11, MV4;11 cells

Row | Structure (SMILES) | EC50 [1] [nM] | EC50 [2, 3] [nM] | EC50 ([2]; MV4;11 cells) [nM]
1 | O=C1CCC(N2Cc3c(NC(=O)CCCNC(=O)c4ccc(Nc5ncc6c(n5)-c5ccc(Cl)cc5C(c5c(F)cccc5F)=NC6)cc4)cccc3C2=O)C(=O)N1 (centres unmarked) [UB-180501] | 100 to 1000 | > 1000 | 
2 | O=C1CCC(N2Cc3c(NC(=O)COCCCNC(=O)c4ccc(Nc5ncc6c(n5)-c5ccc(Cl)cc5C(c5c(F)cccc5F)=NC6)cc4)cccc3C2=O)C(=O)N1 (centres unmarked) [UB-180502] | 100 to 1000 | 10 to 100 | 
3 | O=C1CCC(N2Cc3c(NC(=O)COCCCCNC(=O)c4ccc(Nc5ncc6c(n5)-c5ccc(Cl)cc5C(c5c(F)cccc5F)=NC6)cc4)cccc3C2=O)C(=O)N1 (centres unmarked) [UB-180503] | 100 to 1000 | 100 to 1000 | 
4 | O=C1CCC(N2Cc3c(NC(=O)CCOCCOCCNC(=O)c4ccc(Nc5ncc6c(n5)-c5ccc(Cl)cc5C(c5c(F)cccc5F)=NC6)cc4)cccc3C2=O)C(=O)N1 (centres unmarked) [UB-180504] | 100 to 1000 | 10 to 100 | 
5 | O=C1CCC(N2Cc3c(NC(=O)COCCNC(=O)c4ccc(Nc5ncc6c(n5)-c5ccc(Cl)cc5C(c5c(F)cccc5F)=NC6)cc4)cccc3C2=O)C(=O)N1 (centres unmarked) [UB-180509] | > 1000 | > 1000 | 
6 | O=C1CCC(N2Cc3c(NC(=O)COCCOCCOCCNC(=O)c4ccc(Nc5ncc6c(n5)-c5ccc(Cl)cc5C(c5c(F)cccc5F)=NC6)cc4)cccc3C2=O)C(=O)N1 (centres unmarked) [UB-180520] | > 1000 | 10 to 100 | 
7 | O=C1CCC(N2Cc3c(NC(=O)CCOCCOCCOCCOCCNC(=O)c4ccc(Nc5ncc6c(n5)-c5ccc(Cl)cc5C(c5c(F)cccc5F)=NC6)cc4)cccc3C2=O)C(=O)N1 (centres unmarked) [UB-180530] | > 1000 | 10 to 100 | 
8 | Cc1sc2c(c1C)C(c1ccc(Cl)cc1)=N[C@@H](CC(=O)NCCOCCOCCOCCNCCC(=O)Nc1cccc3c1CN(C1CCC(=O)NC1=O)C3=O)c1nnc(C)n1-2 (some centres unmarked) [UB-180635] | > 1000 |  | 
9 | Cc1sc2c(c1C)C(c1ccc(Cl)cc1)=N[C@@H](CC(=O)NCCOCCOCCOCCNCCCC(=O)Nc1cccc3c1CN(C1CCC(=O)NC1=O)C3=O)c1nnc(C)n1-2 (some centres unmarked) [UB-180648] | > 1000 |  | 
10 | O=C1CCC(N2Cc3c(NC(=O)COCCOCCOCCNCCNC(=O)c4ccc(Nc5ncc6c(n5)-c5ccc(Cl)cc5C(c5c(F)cccc5F)=NC6)cc4)cccc3C2=O)C(=O)N1 (centres unmarked) [UB-180794] |  | > 1000 | 
11 | O=C1CCC(N2Cc3c(NC(=O)CCOCCOCCOCCNCCNC(=O)c4ccc(Nc5ncc6c(n5)-c5ccc(Cl)cc5C(c5c(F)cccc5F)=NC6)cc4)cccc3C2=O)C(=O)N1 (centres unmarked) [UB-180796] |  | > 1000 | 
12 | O=C1CCC(N2Cc3c(NC(=O)CNCCOCCOCCNC(=O)c4ccc(Nc5ncc6c(n5)-c5ccc(Cl)cc5C(c5c(F)cccc5F)=NC6)cc4)cccc3C2=O)C(=O)N1 (centres unmarked) [UB-180809] |  | 100 to 1000 | 
13 | O=C1CCC(N2Cc3c(NC(=O)CNCCOCCN4CCN(CCNC(=O)c5ccc(Nc6ncc7c(n6)-c6ccc(Cl)cc6C(c6c(F)cccc6F)=NC7)cc5)CC4)cccc3C2=O)C(=O)N1 (centres unmarked) [UB-180811] |  | 100 to 1000 | 
14 | CC[C@@H]1C(=O)N(C)c2cnc(Nc3ccc(C(=O)NCCOCCOCCOCCOCCNCCC(=O)Nc4cccc5c4CN(C4CCC(=O)NC4=O)C5=O)cc3OC)nc2N1C1CCCC1 (some centres unmarked) [UB-180813] |  | 10 to 100 | 
15 | CC[C@@H]1C(=O)N(C)c2cnc(Nc3ccc(C(=O)NCCOCCOCCNCC(=O)Nc4cccc5c4CN(C4CCC(=O)NC4=O)C5=O)cc3OC)nc2N1C1CCCC1 (some centres unmarked) [UB-180814] |  | 10 to 100 | 
16 | CC[C@@H]1C(=O)N(C)c2cnc(Nc3ccc(C(=O)NCCNCCOCCOCCOCC(=O)Nc4cccc5c4CN(C4CCC(=O)NC4=O)C5=O)cc3OC)nc2N1C1CCCC1 (some centres unmarked) [UB-180815] |  | 10 to 100 | 
17 | CC[C@@H]1C(=O)N(C)c2cnc(Nc3ccc(C(=O)NCCNCCOCCOCCOCCC(=O)Nc4cccc5c4CN(C4CCC(=O)NC4=O)C5=O)cc3OC)nc2N1C1CCCC1 (some centres unmarked) [UB-180820] |  | 10 to 100 | 
18 | O=C1CCC(N2Cc3c(NC(=O)CCNCCOC4CCN(CCOCCNC(=O)c5ccc(Nc6ncc7c(n6)-c6ccc(Cl)cc6C(c6c(F)cccc6F)=NC7)cc5)CC4)cccc3C2=O)C(=O)N1 (centres unmarked) [UB-180821] |  | > 1000 | 
19 | O=C1CCC(N2Cc3c(NC(=O)CCNCCn4cc(COCCNC(=O)c5ccc(Nc6ncc7c(n6)-c6ccc(Cl)cc6C(c6c(F)cccc6F)=NC7)cc5)nn4)cccc3C2=O)C(=O)N1 (centres unmarked) [UB-180822] |  | > 1000 | 
20 | CC[C@@H]1C(=O)N(C)c2cnc(Nc3ccc(C(=O)NC4CCN(CCOCCN(CC(=O)Nc5cccc6c5CN(C5CCC(=O)NC5=O)C6=O)C(=O)OC)CC4)cc3OC)nc2N1C1CCCC1 (some centres unmarked) [UB-180833] |  | 10 to 100 | 
21 | CC[C@@H]1C(=O)N(C)c2cnc(Nc3ccc(C(=O)NC4CCN(CCOCCN(C=O)CC(=O)Nc5cccc6c5CN(C5CCC(=O)NC5=O)C6=O)CC4)cc3OC)nc2N1C1CCCC1 (some centres unmarked) [UB-180834] |  | 10 to 100 | 
22 | CC[C@@H]1C(=O)N(C)c2cnc(Nc3ccc(C(=O)NC4CCN(CCOCCN(CC(=O)Nc5cccc6c5CN(C5CCC(=O)NC5=O)C6=O)C(C)=O)CC4)cc3OC)nc2N1C1CCCC1 (some centres unmarked) [UB-180835] |  | 10 to 100 | 
23 | CC[C@@H]1C(=O)N(C)c2cnc(Nc3ccc(C(=O)NC4CCN(CCOCCN(CC(=O)Nc5cccc6c5CN(C5CCC(=O)NC5=O)C6=O)C(N)=O)CC4)cc3OC)nc2N1C1CCCC1 (some centres unmarked) [UB-180840] |  | 10 to 100 | 

Now from value to molecule:

Row | EC50 [1] [nM] | EC50 [2, 3] [nM] | EC50 ([2]; MV4;11 cells) [nM] | Structure (SMILES)
24 |  | 100 to 1000 |  | O=C1CCC(N2Cc3c(NC(=O)COCCNCCOCCOCCOCCNC(=O)c4ccc(Nc5ncc6c(n5)-c5ccc(Cl)cc5C(c5c(F)cccc5F)=NC6)cc4)cccc3C2=O)C(=O)N1 (centres unmarked) [UB-180792]
25 |  | 100 to 1000 |  | O=C1CCC(N2Cc3c(NC(=O)COCCNCCOCCOCCOCCNC(=O)[C@]4(Cc5cccc(Nc6nccs6)n5)CC[C@@H](Oc5cccc(Cl)c5F)CC4)cccc3C2=O)C(=O)N1 (some centres unmarked) [UB-180793]
26 |  | 100 to 1000 |  | O=C1CCC(N2Cc3c(NC(=O)COCCOCCOCCNCCNC(=O)[C@]4(Cc5cccc(Nc6nccs6)n5)CC[C@@H](Oc5cccc(Cl)c5F)CC4)cccc3C2=O)C(=O)N1 (some centres unmarked) [UB-180795]
27 |  | > 1000 |  | O=C1CCC(N2Cc3c(NC(=O)CCOCCOCCOCCNCCNC(=O)[C@]4(Cc5cccc(Nc6nccs6)n5)CC[C@@H](Oc5cccc(Cl)c5F)CC4)cccc3C2=O)C(=O)N1 (some centres unmarked) [UB-180797]
28 |  | 100 to 1000 |  | O=C1CCC(N2Cc3c(NC(=O)COCCOCCOCCNCCOCCNC(=O)c4ccc(Nc5ncc6c(n5)-c5ccc(Cl)cc5C(c5c(F)cccc5F)=NC6)cc4)cccc3C2=O)C(=O)N1 (centres unmarked) [UB-180798]
29 |  | 100 to 1000 |  | O=C1CCC(N2Cc3c(NC(=O)COCCOCCOCCNCCOCCNC(=O)[C@]4(Cc5cccc(Nc6nccs6)n5)CC[C@@H](Oc5cccc(Cl)c5F)CC4)cccc3C2=O)C(=O)N1 (some centres unmarked) [UB-180799]
30 |  | 100 to 1000 |  | O=C1CCC(N2Cc3c(NC(=O)CCOCCOCCOCCNCCOCCNC(=O)c4ccc(Nc5ncc6c(n5)-c5ccc(Cl)cc5C(c5c(F)cccc5F)=NC6)cc4)cccc3C2=O)C(=O)N1 (centres unmarked) [UB-180803]
31 |  | 100 to 1000 |  | O=C1CCC(N2Cc3c(NC(=O)CCNCCOCCOCCOCCOCCNC(=O)c4ccc(Nc5ncc6c(n5)-c5ccc(Cl)cc5C(c5c(F)cccc5F)=NC6)cc4)cccc3C2=O)C(=O)N1 (centres unmarked) [UB-180807]
32 |  | 100 to 1000 |  | O=C1CCC(N2Cc3c(NC(=O)CCNCCOCCOCCOCCOCCNC(=O)[C@]4(Cc5cccc(Nc6nccs6)n5)CC[C@@H](Oc5cccc(Cl)c5F)CC4)cccc3C2=O)C(=O)N1 (some centres unmarked) [UB-180808]
33 |  |  | 100 to 1000 | O=C1CCC(N2Cc3c(NC(=O)CNCCOCCN4CCN(CCNC(=O)[C@]5(Cc6cccc(Nc7nccs7)n6)CC[C@@H](Oc6cccc(Cl)c6F)CC5)CC4)cccc3C2=O)C(=O)N1 (some centres unmarked) [UB-180812]
34 |  | 100 to 1000 |  | CN(CCOCCOCCOCCNC(=O)[C@]1(Cc2cccc(Nc3nccs3)n2)CC[C@@H](Oc2cccc(Cl)c2F)CC1)CC(=O)Nc1cccc2c1CN(C1CCC(=O)NC1=O)C2=O (some centres unmarked) [UB-180836]
